# Values of other authors in US6555519B2, “O-glucosylated benzamide SGLT2 inhibitors and method” (Bristol-Myers Squibb Company, priority 2000, dated 2003).
# Tests used:
# [1] = target: T1, human SGLT1 (Homo sapiens, UniProt P13866); conditions: SGLT1 transporter; read-out: Km values for uptake
# T1 sequence (P13866 1-664): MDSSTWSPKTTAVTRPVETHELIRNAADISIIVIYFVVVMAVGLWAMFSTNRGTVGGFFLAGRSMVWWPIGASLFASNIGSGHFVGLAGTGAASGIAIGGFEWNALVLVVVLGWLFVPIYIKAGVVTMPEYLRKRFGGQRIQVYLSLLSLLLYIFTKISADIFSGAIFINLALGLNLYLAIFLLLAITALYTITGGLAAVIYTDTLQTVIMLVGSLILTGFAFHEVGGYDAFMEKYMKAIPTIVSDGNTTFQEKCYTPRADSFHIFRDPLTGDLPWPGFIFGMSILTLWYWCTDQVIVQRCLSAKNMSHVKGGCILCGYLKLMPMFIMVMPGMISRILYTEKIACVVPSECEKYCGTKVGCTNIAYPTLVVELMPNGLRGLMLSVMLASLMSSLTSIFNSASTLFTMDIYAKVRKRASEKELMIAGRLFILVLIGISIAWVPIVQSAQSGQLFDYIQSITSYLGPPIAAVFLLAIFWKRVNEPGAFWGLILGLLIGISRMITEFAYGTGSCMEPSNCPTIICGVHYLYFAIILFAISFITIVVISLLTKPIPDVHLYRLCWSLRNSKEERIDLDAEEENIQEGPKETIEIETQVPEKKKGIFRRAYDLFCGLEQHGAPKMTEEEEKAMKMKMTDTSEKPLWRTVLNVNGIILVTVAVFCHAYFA
# [2] = target: T2, human SGLT2 (Homo sapiens, UniProt P31639); conditions: SGLT2 transporter; read-out: Km values for uptake
# T2 sequence (P31639 1-672): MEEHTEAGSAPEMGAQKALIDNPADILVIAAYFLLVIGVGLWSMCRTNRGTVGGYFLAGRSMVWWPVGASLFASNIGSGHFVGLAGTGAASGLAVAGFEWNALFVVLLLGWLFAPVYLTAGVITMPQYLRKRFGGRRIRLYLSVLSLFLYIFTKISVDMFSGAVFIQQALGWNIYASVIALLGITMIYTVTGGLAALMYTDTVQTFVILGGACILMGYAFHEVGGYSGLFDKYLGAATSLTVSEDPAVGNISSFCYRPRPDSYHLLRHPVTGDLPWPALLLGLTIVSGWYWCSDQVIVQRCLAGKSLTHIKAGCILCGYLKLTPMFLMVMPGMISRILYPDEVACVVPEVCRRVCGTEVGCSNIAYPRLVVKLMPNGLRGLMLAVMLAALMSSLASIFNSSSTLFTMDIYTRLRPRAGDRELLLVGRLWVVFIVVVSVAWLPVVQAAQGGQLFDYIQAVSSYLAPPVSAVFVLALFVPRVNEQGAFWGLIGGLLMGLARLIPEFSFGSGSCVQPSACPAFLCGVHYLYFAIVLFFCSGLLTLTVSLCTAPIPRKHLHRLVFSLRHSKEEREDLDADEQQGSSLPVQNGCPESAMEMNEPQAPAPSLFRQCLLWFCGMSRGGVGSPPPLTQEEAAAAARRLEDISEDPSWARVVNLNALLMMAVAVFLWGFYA
smiles,measurement,setting,value
"CO[C@H]1O[C@H](CO)[C@@H](O)[C@H](O)[C@H]1O [AMG, α-methyl-D-glucopyranoside]",Km,[1],400 µM
same,Km,[2],1600 µM
